{"source": "ChEMBL document CHEMBL5614399", "about": "“Design and Assessment of First-Generation Heterobifunctional PPARα/STING Modulators” (ACS Med Chem Lett, 2024)", "key": {"661W [1]": {"system": "661W", "test": "Cytoprotective activity against 4HNE-induced mouse 661W cells assessed as reduction in ROS level at 0.5 uM preincubated for 2 hrs followed by 4-HNE addition and measured after 24 hrs in presence of A229 by CM-H2DCFDA staining based fluorescence analysis", "format": "functional, cell-based", "settings": "time 26.0 hrs"}, "661W [2]": {"system": "661W", "test": "Cytoprotective activity against 4HNE-induced mouse 661W cells assessed as reduction in ROS level at 1 uM preincubated for 2 hrs followed by 4-HNE addition and measured after 24 hrs in presence of A229 by CM-H2DCFDA staining based fluorescence analysis", "format": "functional, cell-based", "settings": "time 26.0 hrs"}}, "note": "Calls of active or inactive are those of the source. No cut-off for these calls is given here."}
{"smiles": "O=C(Nc1ccc(O)c(NS(=O)(=O)c2ccc(F)cc2)c1)c1ccc(-c2ccccc2)cc1", "values": [{"measurement": "Activity", "setting": "661W [1]", "value": "Active"}, {"measurement": "Activity", "setting": "661W [2]", "value": "Active"}]}
